Data taken from a melting point compilation (Tetko et al.; mined from patent text by program, amines drawn as free bases though some values may be those of a salt).

Row | Structure (SMILES) | melting point [°C]
1 | O=c1[nH]c2ccc(Br)cc2c(-c2ccccc2)[n+]1[O-] | 275 to 276
2 | COC(=O)C1=C(C)NC(C)=C(C(=O)OC)C1c1ccccc1Cl | 188 to 189
3 | COc1ccc2c(c1)SC(CCBr)C(=O)N2 (stereo not given) | 142 to 143
4 | COc1cccc2cccc(S(=O)(=O)N(C)C)c12 | 146 to 149
5 | CCc1nc(N)nc(N)c1-c1ccc(N(C)C)c([N+](=O)[O-])c1 | 256 to 258
6 | CC(O)C(C)Sc1sc(-c2cc[nH]n2)c2c1C(=O)CC(C)(C)C2 (stereo not given) | 171 to 174
7 | CCN(CCO[N+](=O)[O-])C(=O)COC(=O)c1cc(S(N)(=O)=O)c(Cl)cc1NCc1ccco1 | 60 to 62
8 | COC(=O)C(C#N)c1cccc2ccc(OC)cc12 (stereo not given) | 80 to 82
9 | COc1ccc(C2=NN(c3ccc(S(N)(=O)=O)cc3)C(=O)[C@H]3CC=CC[C@@H]23)cc1OC (relative stereo) | 181 to 183
10 | CCc1cccc(CC)c1NCC(=O)NC(=S)NNC | 166
11 | O=C1C(=O)N2CCOc3cccc1c32 | 188
12 | CCN(CC)Cc1cc(C2(c3cccc(-c4cccnc4F)c3)N=C(N)N(C)C2=O)cn1CCF (stereo not given) | 121 to 140
13 | Cc1sc(NS(=O)(=O)c2c(Cl)cc(Cl)cc2Cl)nc1CC(=O)N1CCOCC1 | 216 to 217
14 | C[C@H](CN1CC(C#N)C1)NC(=O)c1c[nH]c2ncc(-c3nn(C)c4cc(Cl)ccc34)nc12 | 235 to 238
15 | CC(C)(C)OC(=O)Nc1ccc(F)cc1C(F)(F)F | 61 to 62
16 | CC(C)(C)C(=O)Oc1nc(-c2ccccc2)sc1-c1ccccc1 | 134 to 136
17 | CCCCOC(=O)CN(Cc1ccccc1OC)S(=O)(=O)c1ccc2c(Cl)cnc(Cl)c2c1 | 106 to 108
18 | CCCCNC(=O)NS(=O)(=O)c1c(Cl)cccc1S(=O)(=O)N(C)C | 107 to 115
19 | CNC(=O)NS(=O)(=O)c1cc(CCNC(=O)C=Cc2ccc(OC)cc2OC)ccc1OC | 210
20 | COP(=O)(OC)OCN1C(=O)NC(c2ccccc2)(c2ccccc2)C1=O | 123 to 124
21 | NC(=NCC(F)(F)F)Nc1cncc(SCCCC(=O)Nc2ccccc2)n1 | 165 to 167
22 | NC(=O)c1ccc(Cl)c([N+](=O)[O-])c1N1CC1 | 216
23 | CNC(=O)c1ccc(N2CCN(Cc3cc4c(c(C5CC5)c3)OC(C)C(=O)N4)CC2)cc1 (stereo not given) | 256 to 259
24 | COC(=O)/C=C/c1cc(-c2ccc(C)cc2)cs1 | 116 to 118

Row | Structure (SMILES) | melting point [°C]
25 | COC(=O)CCCCOc1ccc2nc3[nH]c(=O)[nH]c3cc2c1 | 281 to 282
26 | CN(Cc1cccc(-c2ccc(CC3SC(=O)NC3=O)cc2)c1)C(=O)c1ccc2cc(O)ccc2c1 (stereo not given) | 218
27 | O=C1CSC(=S)N1c1ccc(Cl)cc1 | 124 to 126
28 | COc1ccc(-c2nc3sccn3c2/C=C/C(=O)c2ccc[nH]2)cc1 | 177 to 179
29 | CCSc1c(Cl)c(C(=O)O)c(C(O)=NC)c(Cl)c1SCC | 154 to 155
30 | CCCCN(C(=O)C(=O)O)c1cccc(NC(=O)C(=O)O)c1 | 232
31 | CC(C)c1cccc(C(C)C)c1NC(=O)C1c2ccccc2COc2cc(Br)ccc21 (stereo not given) | 170 to 172
32 | COc1cccc2c1nc(-c1c(F)cccc1F)n2CC=C(C)C | 101 to 103
33 | C[C@H](NC(=O)CC#N)C(=O)N1CCC[C@H]1C(=O)Nc1ccccc1 | 183 to 184
34 | CC(=O)C(=NNc1ccccc1)C(=O)N(C(C)C)C(C)C | 143 to 145
35 | O=C(Nc1ccc(C(F)(F)F)nc1C1CCN(CC=Cc2ccc(Cl)cc2)CC1)c1ccnc(Cl)c1 | 134 to 135
36 | Cc1c(-c2ccccn2)c(N2CC[C@H](N(C)C)C2)c2oc(C3CC3)nc2c1C#N | 150 to 151
37 | CCC1CCSc2ccc(Nc3ncc(Cl)c(Nc4ccccc4C(=O)NC)n3)nc2C1 (stereo not given) | 228 to 231
38 | NC(=O)c1ccc(-c2nccc3[nH]c(=O)ccc23)cc1 | > 300
39 | CC(CCC(=O)NCCCCCC(=O)NCCCCCO)C1CCC2C3C(O)CC4CC(O[Si](C)(C)C(C)(C)C)CCC4(C)C3CC(O)C12C (stereo not given) | 146 to 148
40 | Clc1ccc(-n2ccc(OCCOCCN3CCCCC3)n2)cc1Cl | 126 to 128
41 | Cc1ccc(C)c(OCc2ccccc2C(=O)c2ccnn2C)c1 | 88 to 89
42 | COc1nc(C)c(CCN2CC=C(c3c[nH]c4ccccc34)CC2)c(=O)n1C | 209 to 211
43 | CCOC(=O)c1cnn(-c2cccc(Cl)c2)c1C(N)=O | 132
44 | CN1CCC2(CC=C(c3cc4ccccc4s3)CC2)CC1 | 89.7 to 91.2
45 | CCOc1ccc(CC(NC(C)=O)C(=O)O)cc1OCC (stereo not given) | 149 to 151
46 | Cc1c([N+](=O)[O-])ccnc1C(=O)NCCNC(=O)OC(C)(C)C | 133 to 134
47 | Cc1nc(N)nc(N)c1CCC(C)c1ccc(Cl)cc1Cl (stereo not given) | 164 to 168
48 | COc1cc(-c2nc(-c3ccc(N(C)C)cc3)c(C)[nH]2)ccc1OC(C)=O | 253 to 256

Row | Structure (SMILES) | melting point [°C]
49 | Cc1cnc2c(C#N)c(-c3ccc(S(=O)(=O)NC4(C(F)(F)F)CC4)cn3)n(C3CCCC3)c2c1 | 249 to 251
50 | FC(F)(F)Sc1ccc(/C=C/c2nc(COc3ccc(-c4nc(Cn5ccnc5)co4)cc3)co2)cc1 | 144 to 145
51 | COC(=O)n1cc2c(c1)-c1ccc(Cl)cc1C(c1ccccc1Cl)=[N+]([O-])C2 | 224 to 226
52 | COC1=C(C(=O)c2ccc(C)cc2)C(c2ccc(C(C)C)cc2)N(c2ccc(C)nn2)C1=O (stereo not given) | 248 to 249
53 | CN(C)Cc1nnc2n1-c1ccc(Cl)cc1N(c1ccccc1)C(=O)C2 | 232 to 234
54 | Cc1oc(-c2ccco2)nc1COc1ccc(CO)cn1 | 120 to 121
55 | CCOC(=O)C(C)Oc1ccc(Oc2nc3ccc(Cl)cc3cc2Cl)cc1 (stereo not given) | 70
56 | Cc1cc(C#N)cnc1N | 198 to 200
57 | Cc1cc(-c2cc(C(F)(F)F)nc(-c3cccc(-c4ccc(S(N)(=O)=O)s4)c3)n2)ccc1C(F)(F)F | 216
58 | Cc1ccc(-n2nc(-c3ccc(O)cc3)c3cccnc32)cc1 | 201 to 203
59 | Cc1cccc(-n2c(-c3sc(Nc4ccccc4)nc3-c3ccccc3)nc3ccccc3c2=O)c1 | 105 to 107
60 | CCc1nc2ccccc2c2ccc(F)cc12 | 105 to 106
61 | CCCCCCCCCC(=O)Oc1ccc(/C=C2/C(=O)Nc3cc(OC)c(OC)cc32)cc1 | 138 to 140
62 | COc1cccc(CC2CCCc3cc(OCc4ccccc4)c(OC)cc3N2)c1 (stereo not given) | 92 to 93
63 | CC1CCN(C(=O)[C@H](CCCNc2ncccn2)NS(=O)(=O)c2ccc3ccccc3c2)CC1 | 98 to 100
64 | N#CCCc1ccc(OCC2(O)CN3CCC2CC3)cc1 (stereo not given) | 92 to 94
65 | Cn1c(=O)ccc2cc(COc3cc(F)cc(C4(SC(C)(C)C)CCOCC4)c3)ccc21 | 54 to 56
66 | CCOC(=O)c1ncn(-c2cc(C(=O)OC)c([N+](=O)[O-])cc2C(F)(F)F)n1 | 190 to 192
67 | CC(=O)C(C)(CO)CO | 60
68 | COc1cccc(C=C2NC(=O)NC2=O)c1OCc1ccccc1 | 210 to 212
69 | COc1ccc2c(c1)C(C(=O)O)CCC2 (stereo not given) | 126 to 127
70 | COC(=O)c1nc(NC(C)=O)ccc1Oc1nc(OC)cc(OC)n1 | 80 to 85
